Tested on: patients with advanced solid tumors
Experiment: Phase 1 trial: adverse events (CTCAE), DLT and MTD
Format: in vivo, human
Conditions: Phase 1, 600 mg (N=64)
Experimental: The phase 1 trial was a two-part, multicenter, open-label, nonrandomized study to evaluate the safety and preliminary efficacy of HA121-28.
Safety, tolerability, and PK of HA121-28 was assessed in dose-escalation part. The single-patient accelerated titration was carried out at 25 mg and 50 mg; then, the dose escalation proceeded according to a “3 + 3” design in dose range of 100 to 800 mg. Escalation to a higher dose level was considered by the satisfactory review of safety results from the previous lower dose during the first cycle.
The dose-expansion part aims to further access the safety and efficacy of HA121-28 at the selected doses based on data from the dose-escalation part. The RP2D was determined by investigators in view of a thorough review of safety, PK, and efficacy results.
In phase 1 trial, during the dose-escalation part, patients first administered HA121-28 in a single ascending dose under the fasted state, then followed up for seven days. Then, patients received ascending doses of HA121-28 (q.d.) on a 21-day on and 7-day off treatment scheme for a 28-day cycle. For patients deemed beneficial from the treatment by investigators, treatment could remain until disease progression, or they discontinued from the study. In the dose-expansion part of phase 1, as well as phase 2, patients received HA121-28 (q.d.) at the selected doses on a 21-day on and 7-day off treatment scheme until disease progression, or they discontinued from the study.
Treatment-emergent adverse events (TEAEs) were documented during the entire study period. The predefined adverse event of special interest (AESI) was ≥ grade 3 prolonged QT interval. Tumor imaging was performed using contrast-enhanced computed tomography or magnetic resonance imaging at screening, Day 28 of the first cycle, then approximately every eight weeks till the end of the study for phase 1; in phase 2, imaging was scheduled at screening, and every eight weeks during the first 40 weeks, followed by every 12 weeks for the rest of the study period. RECIST 1.1 was used by the independent review committee or investigators for assessment of tumor response. After the original assessment, a repeated assessment was required around four weeks later to confirm a complete or partial response.
The primary endpoints of phase 1 were to investigate the MTD, dose-limiting toxicities, and the incidence and severity of TEAEs. Each TEAE was graded according to the Common Terminology Criteria for Adverse Events (CTCAE, version 5.0) and coded by Medical Dictionary for Regulatory Activities (MedDRA, version 21.0). The secondary endpoints included calculating PK parameters, assessing the ORR and DCR at the recommended dose by investigators as per RECIST 1.1. The exploratory endpoint was PFS.
If grade 2 or higher toxicity related to the study drug occurs in Groups 1 and 2 (as determined by the investigator), dose escalation will proceed using a 3+3 design starting from that dose level. If no DLT is observed at the 800 mg/d dose level after dose escalation, a meeting of investigators will be convened to decide whether to proceed with further dose escalation based on the available PK data, safety, and tolerability information.
5. Definition of DLT and MTD
The following events related to the study drug (including those that are definitely related, highly likely to be related, and possibly related):
(1) Grade 4 hematologic toxicity or grade 3 neutropenia accompanied by a fever of 38.5℃ or higher, or grade 3 thrombocytopenia accompanied by severe bleeding.
(2) Patients who discontinued the medication for more than 7 days due to unresolved toxicity reactions or who discontinued the medication more than twice due to toxicity […]
(3) In the context of supportive treatment, diarrhea of grade 2 lasting more than 7 days, or grade 3 diarrhea lasting more than 3 days.

Compound: COc1cc2c(Nc3ccc(Br)cc3F)ncnc2cc1OCCCCN(C)C.Cl.Cl [HA121-28, N-(4-bromo-2-fluorophenyl)-7-(4-(dimethylamino)butoxy)-6-methoxy quinazolin-4-amine dihydrochloride]
- Serious TEAE: Cardiac tamponade: 0 No. (%)
- Serious TEAE: Coronary artery atherosclerosis: 0 No. (%)
- Serious TEAE: Death: 0 No. (%)
- Serious TEAE: Diarrhea: 2 (3.1) No. (%)
- Serious TEAE: Drug eruption: 1 (1.6) No. (%)
- Serious TEAE: Dyspnea: 0 No. (%)
- Serious TEAE: Embolism: 0 No. (%)
- Serious TEAE: Erythema multiforme: 0 No. (%)
- Serious TEAE: Headache: 0 No. (%)
- Serious TEAE: Hemoptysis: 1 (1.6) No. (%)
- Serious TEAE: Hydronephrosis: 0 No. (%)
- Serious TEAE: Hypertension: 0 No. (%)
- Serious TEAE: Hypoalbuminemia: 1 (1.6) No. (%)
- Serious TEAE: Intestinal obstruction: 0 No. (%)
- Serious TEAE: Intra-abdominal fluid collection: 0 No. (%)
- Serious TEAE: Intracranial tumor hemorrhage: 0 No. (%)
- Serious TEAE: Liver injury: 1 (1.6) No. (%)
- Serious TEAE: Lung adenocarcinoma: 0 No. (%)
- Serious TEAE: Malignant neoplasm progression: 2 (3.1) No. (%)
- Serious TEAE: Multiple organ dysfunction syndrome: 0 No. (%)
- Serious TEAE: Nausea: 2 (3.1) No. (%)
- Serious TEAE: Nephrolithiasis: 0 No. (%)
- Serious TEAE: Platelet counts decreased: 1 (1.6) No. (%)
- Serious TEAE: Pleural effusion: 0 No. (%)
- Serious TEAE: Pneumonia: 0 No. (%)
- Serious TEAE: Pneumonitis: 0 No. (%)
- Serious TEAE: Prolonged QT interval: 1 (1.6) No. (%)
- Serious TEAE: Pulmonary embolism: 0 No. (%)
- Serious TEAE: Pyrexia: 0 No. (%)
- Serious TEAE: Rash: 3 (4.7) No. (%)
- Serious TEAE: Rectal hemorrhage: 0 No. (%)
- Serious TEAE: Respiratory failure: 0 No. (%)
- Serious TEAE: Seizure: 0 No. (%)
- Serious TEAE: Septic shock: 0 No. (%)
- Serious TEAE: Sudden cardiac arrest: 1 (1.6) No. (%)
- Serious TEAE: Sudden death: 1 (1.6) No. (%)
- Serious TEAE: Upper respiratory tract infection: 1 (1.6) No. (%)
- Serious TEAE: Ventricular tachycardia: 1 (1.6) No. (%)
- Serious TEAE: Vomiting: 2 (3.1) No. (%)
- Serious TEAE: Weight loss: 2 (3.1) No. (%)
- Serious TRAE: ALT increased: 1 (1.6) No. (%)
- Serious TRAE: AST increased: 1 (1.6) No. (%)
- Serious TRAE: Abdominal Pain: 0 No. (%)
- Serious TRAE: Abdominal distension: 0 No. (%)
- Serious TRAE: Acute cholecystitis: 0 No. (%)
- Serious TRAE: Acute pancreatitis: 0 No. (%)
- Serious TRAE: Anal abscess: 1 (1.6) No. (%)
- Serious TRAE: Any: 13 (20.3) No. (%)
- Serious TRAE: Aortic intramural hematoma: 0 No. (%)
- Serious TRAE: Arrhythmia: 0 No. (%)
- Serious TRAE: Blood bilirubin increased: 1 (1.6) No. (%)
- Serious TRAE: Blood creatinine increased: 1 (1.6) No. (%)
- Serious TRAE: COVID-19: 0 No. (%)
- Serious TRAE: Cardiac tamponade: 0 No. (%)
- Serious TRAE: Coronary artery atherosclerosis: 0 No. (%)
- Serious TRAE: Death: 0 No. (%)
- Serious TRAE: Diarrhea: 2 (3.1) No. (%)
